11 compounds from US7482344B2, “Tricyclic steroid hormone nuclear receptor modulators” (Eli Lilly and Company, priority 2003, dated 2009) can be followed below.

A value given as a limit tells only on which side of the number the result lay.

For this test, the target named is T1, MR (Homo sapiens, UniProt P08235).
T1 sequence (P08235 1-984): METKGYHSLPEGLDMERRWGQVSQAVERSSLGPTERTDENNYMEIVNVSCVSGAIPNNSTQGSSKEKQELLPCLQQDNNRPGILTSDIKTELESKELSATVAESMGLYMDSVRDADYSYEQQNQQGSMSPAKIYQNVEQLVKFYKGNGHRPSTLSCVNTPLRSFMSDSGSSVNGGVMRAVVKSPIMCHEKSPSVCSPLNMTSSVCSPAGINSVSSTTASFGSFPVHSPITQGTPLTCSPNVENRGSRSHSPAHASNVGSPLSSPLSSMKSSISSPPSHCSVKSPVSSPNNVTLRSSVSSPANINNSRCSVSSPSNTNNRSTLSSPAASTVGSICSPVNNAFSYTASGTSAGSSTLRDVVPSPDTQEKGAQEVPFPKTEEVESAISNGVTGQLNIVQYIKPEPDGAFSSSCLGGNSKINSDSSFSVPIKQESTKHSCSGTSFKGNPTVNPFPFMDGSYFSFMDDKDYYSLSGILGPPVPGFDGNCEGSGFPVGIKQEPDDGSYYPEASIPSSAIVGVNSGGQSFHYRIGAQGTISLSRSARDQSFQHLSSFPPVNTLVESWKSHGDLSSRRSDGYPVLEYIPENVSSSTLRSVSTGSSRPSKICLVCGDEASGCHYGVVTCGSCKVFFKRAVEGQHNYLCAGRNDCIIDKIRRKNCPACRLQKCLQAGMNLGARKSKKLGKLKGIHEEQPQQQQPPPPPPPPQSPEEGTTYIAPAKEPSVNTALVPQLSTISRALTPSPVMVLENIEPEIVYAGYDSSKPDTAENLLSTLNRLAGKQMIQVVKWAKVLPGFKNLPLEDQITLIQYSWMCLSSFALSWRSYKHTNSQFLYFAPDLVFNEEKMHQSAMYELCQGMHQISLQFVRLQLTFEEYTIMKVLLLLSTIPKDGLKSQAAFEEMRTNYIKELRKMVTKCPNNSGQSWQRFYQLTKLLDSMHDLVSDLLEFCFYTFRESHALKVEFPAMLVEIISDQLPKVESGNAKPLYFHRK
The test is described as follows: Mineralocorticoid Receptor Binding Assay (Method 1), [3H]-aldosterone competition. More on the design: The full length human MR gene is cloned from a human kidney or human brain cDNA library; made in house; host or cells: SF9 insect cells (pAcHLT baculovirus transfer vector). As to conditions: human MR expressed in Sf9 cells, 0.5 nM [3H]-aldosterone. The method, then: Mineralocorticoid Receptor Binding Assay (Method 1):
The full length human MR gene is cloned from a human kidney or human brain cDNA library. Briefly, using synthetic oligonucleotide primers (Eli Lilly and Company, Indianapolis) directed to nucleotides 20-54 and 3700-3666 of the human MR, polymerase chain reaction (PCR) is performed under standard conditions using a human cDNA library. The PCR reaction is performed in a final volume of 50 μl containing about 1μl of a 50× stock solution of polymerase; about 1 μl of a 50× stock solution of dNTP; about 5μl of an appropriate PCR buffer; about 1 μl of each primer; about 5 μl of a H. kidney or H. brain cDNA library; and about 36 μl of water. The reaction is allowed to denature for about 30 seconds at 95 degrees Celsius, anneal for about 30 seconds at 55 degrees Celsius, and extend for about 5 minutes at 72 degrees Celsius, the sequence being repeated for a total of about 35 cycles. The desired PCR product (3.68 Kb) is confirmed by gel electrophoresis and subsequently cut from the gel and stored at about −20 degrees Celsius until extraction. To extract the cDNA product from the agarose gel, the QIAEX II Gel Extraction protocol (QIAGEN, Inc.) is employed according to the manufacturer's instructions. Following extraction, the MR cDNA is cloned into an appropriate cloning vector (Zero Blunt TOPO PCR Cloning Kit (Invitrogen, Inc.) and a pAcHLT-baculovirus transfer vector (B.D./Pharminogen), then expressed in SF9 insect cells, essentially according to manufacturer's instructions. Sf9 cells are grown at a scale where gram quantity cell pellets are obtained for subsequent use in the MR binding assay. Harvested cell pellets are lysed by repeated freeze-thaw cycles (about 4) in a suitable lysis buffer then centrifuged at about 1×10^3G (with the supernatant being saved for future assays).
MR binding assays are performed in a final total volume of about 250 μl containing about 20-25 μg of protein and 0.5 nM of [^3H]-aldosterone plus varying concentrations of test compound or vehicle. The assay binding buffer consists of 30 mM sodium molybdate, 30 mM of TRIS-HCl, 5 mM sodium phosphate, 5 mM sodium pyrophosphate, and about 10% glycerol, pH=7.5.
Briefly, assays are prepared at RT in 96-well Falcon 3072 plates, each well containing 210 μof binding buffer, 10 μl of […], 10 μl of test compound/vehicle, and 20 μl of the resuspended receptor protein extract. Incubations are carried out at 4 degrees Celsius with shaking for about 16 hours. 200 μl aliquots of each incubation are filtered onto Millipore HA 0.45 micron 96-well filter plates, pre-moistened with cold 30 mM TRIS-HCl. The filter plates are suctioned dry with vacuum and immediately washed 3× with cold 30 mM TRIS-HCl. The plates are then punched out and the amount of receptor-ligand complex is determined by liquid scintillation counting using 4 ml of Ready Protein Plus™ liquid scintillation cocktail.
For `O=c1[nH]c2cc(C=C3c4ccccc4Sc4ccccc43)ccc2s1` [Example 12], the inhibitory constant (Ki) is less than 500 nM. `CC(=C1c2ccccc2Sc2ccccc21)c1cccc(NS(C)(=O)=O)c1` [Example 4, 9-[1-(3-methylsulfonoylaminophenyl)ethylene] thioxanthine]: the Ki was less than 500 nM. The figure for `Oc1ccccc1C=C1c2ccccc2Sc2ccccc21` [Example 15] is less than 500 nM; for `CC(=C1c2ccccc2Sc2ccccc21)c1cccc(N)c1` [Example 6] it is less than 500 nM. Next, `O=c1[nH]c2cc(C=C3c4ccccc4Sc4ccccc43)ccc2o1` [Example 11]: less than 500 nM. Next, `O=c1[nH]c2ccc(C=C3c4ccccc4Sc4ccccc43)cc2[nH]1` [Example 10]: less than 500 nM; `O=c1[nH]c2cc(C=C3c4ccccc4Sc4ccccc43)ccc2n1CCN1CCOCC1` [Example 13]: less than 500 nM. Compound `CN1CCN(CCn2c(=O)[nH]c3cc(C=C4c5ccccc5Sc5ccccc54)ccc32)CC1` [Example 14] yielded an inhibition constant Ki of less than 500 nM. The figure for `CS(=O)(=O)Nc1cccc(C=C2c3ccccc3Sc3ccccc32)c1` [Example 8] is less than 500 nM; for `O=c1[nH]c2ccc(C=C3c4ccc(F)cc4Sc4cc(F)ccc43)cc2[nH]1` [Example 5, 5-(3,6-Difluoro-thioxanthen-9-ylidenemethyl)-1,3-dihydro-benzoimidazol-2-one] it is less than 500 nM; for `Nc1cccc(C=C2c3ccccc3Sc3ccccc32)c1` [Example 9] it is less than 500 nM.

The Ki is a measure of affinity in units of concentration, obtained from inhibition or displacement. Low readings indicate tighter binding, high ones weaker binding.
